# Patent EP2992880A1, “Use of heme oxygenase 1 inducers and cannabinoid 2 receptor or delta-opioid receptor agonists in inflammatory pain” (Fundació Institut de Recerca de l'Hospital de la Santa Creu …, priority 2014, dated 2016)
# Key:
# CFA-injected mice [1] = experiment: plantar test (thermal hyperalgesia) in CFA-induced chronic inflammatory pain; type: in vivo, male C57BL/6 mice
# Experimental: (§1) The experiments were performed in male C57BL/6 mice acquired from Harlan Laboratories (Barcelona, Spain). All mice weighing 21 to 25 g were housed under 12-h/12-h light/ dark conditions in a room with controlled temperature (22° C) and humidity (66%). Animals had free access to food and water and were used after a minimum of 7 days acclimatization to the housing conditions. All experiments were performed according with the Guide for the Care and Use of Laboratory Animals as adopted and promulgated by the U.S. National Institutes of Health and approved by the local Committee of Animal Use and Care of the Autonomous University of Barcelona. All efforts were made to minimize animal suffering and to reduce the number of animals used.
# (§2) Chronic inflammatory pain was induced by the subplantar injection of 30 µl of CFA (Sigma) into the right hind paw under brief anesthetic conditions with isoflurane according to previous works (Leánez et al., Eur J Pharmacol, 2009, 602:41-49; Hervera et al., Naunyn Schmiedebergs Arch Pharmacol, 2009, 380:345-352). All experiments were performed at 10 days after CFA injection. At this time point, all of these animals developed a local inflammatory reaction, allodynia to mechanical stimuli and hyperalgesia to noxious thermal stimuli, as previously reported (Negrete et al., PLoS One, 2011, 6:e26688). The development of mechanical allodynia and thermal hyperalgesia was evaluated by using the von Frey filaments and plantar tests, respectively. All animals were tested in each paradigm before and at 10 days after CFA-injection.
# Thermal hyperalgesia was assessed as previously reported by Hargreaves et al. (Pain, 1988, 32:77-88). Paw withdrawal latency in response to radiant heat was measured using the plantar test apparatus (Ugo Basile, Varese, Italy). Briefly, mice were placed in methacrylate cylinders (20 cm high x 9 cm diameter) positioned on a glass surface. The heat source was positioned under the plantar surface of the hind paw and activated with a light beam intensity, chosen in preliminary studies to give baseline latencies from 8 to 10 s in control mice. A cut-off time of 12 s was used to prevent tissue damage in absence of response. The mean paw withdrawal latencies from the ipsilateral and contralateral hind paws were determined from the average of three separate trials, taken at 5 min intervals to prevent thermal sensitization and behavioral disturbances. Animals were habituated to the environment for 1 h before the experiment to become quiet and to allow testing. […]
# In another set of experiments, we evaluated the mechanical antiallodynic and thermal antihyperalgesic effects produced by the subplantar administration of 290 µg of SnPP alone or combined with the subplantar administration of a high dose of DPDPE (150 µg) or JWH-015 (300 µg) in the contralateral and ipsilateral paw of CFA-injected animals (n = 6 animals per group).
# The reversibility of the antinociceptive effects produced by the subplantar administration of DPDPE (150 µg) or JWH-015 (300 µg), as doses that produce the maximal antiallodynic and antihyperalgesic effects after peripheral inflammation, by their subplantar coadministration with specific (naltrindole; 50 µg; AM630; 60 µg) and an unspecific peripheral opioid antagonist (naloxone methiodide, NX-ME; 50 µg) or a cannabinoid 1 receptor (CB1R) antagonist (AM251; 150 µg) (Hervera et al., J Pharmacol Exp Ther, 2010, 334: 887-896; Hervera et al., Mol Pain, 2011, 7:25) was also evaluated (n = 6 animals per group). The doses of all tested opioid and cannabinoid receptor antagonists were selected according to our previous data in animals with chronic pain (Hervera et al., Naunyn Schmiedebergs Arch Pharmacol, 2009, 380:345-352; Hervera et al., Psychopharmacology, 2013, 228:463-477; Negrete et al., PLoS One, 2011, 6:e26688).
# CoPP and SnPP were dissolved in DMSO (1 % solution in saline). JWH-015, AM630, AM251 were dissolved in DMSO (50 % solution in saline). […]
# CFA-injected mice [2] = experiment: von Frey filaments test (mechanical allodynia) in CFA-induced chronic inflammatory pain; type: in vivo, male C57BL/6 mice
# Experimental: as §1, §2
# Mechanical allodynia was quantified by measuring the hind paw withdrawal response to von Frey filament stimulation. In brief, animals were placed in methacrylate cylinders (20 cm high, 9 cm diameter; Servei Estació, Barcelona, Spain) with a wire grid bottom through which the von Frey filaments (North Coast Medical, Inc., San Jose, CA) with a bending force in the range of 0.008-3.5 g were applied by using a modified version of the up-down paradigm, as previously reported by Chaplan et al. (J Neurosci Methods, 1994, 53:55-63). The filament of 0.4 g was used first and the 3.0 g filament was used as a cut-off. Then, the strength of the next filament was decreased or increased according to the response. The threshold of response was calculated from the sequence of filament strength used during the up-down procedure by using an Excel program (Microsoft Iberia SRL, Barcelona, Spain) that includes curve fitting of the data. Clear paw withdrawal, shaking, or licking of the paw was considered as a nociceptive-like response. Both ipsilateral and contralateral hind paws were tested. Animals were allowed to habituate for 1 h before testing in order to allow an appropriate behavioral immobility.
# In a first set of experiments, we assessed the expression of inflammatory pain induced by the subplantar administration of CFA as previously used (Leánez et al., Eur J Pharmacol, 2009, 602:41-49). After the habituation period, baseline responses were established in the following sequence: von Frey filaments and plantar test. After baseline measurements, inflammatory pain was induced and animals were again tested in each paradigm at day 10 after CFA injection by using the same sequence as for baseline responses. The contralateral paws were used as controls (n = 6 animals per group).
# In a second set of experiments, we evaluated the mechanical antiallodynic and thermal antihyperalgesic effects of the subplantar administration of different doses of a specific DOR (DPDPE) or CB2R (JWH-015) agonist and their respective vehicles in the contralateral and ipsilateral paw of CFA-injected animals (n = 6 animals per group). […]
substance,measurement,setting,value
cobalt (III) protoporphyrin IX chloride [CoPP],effect of CoPP treatment on the thermal antihyperalgesic effects of DPDPE,"CFA-injected mice [1]; CoPP 10 mg/kg intraperitoneal, DPDPE 50 µg subplantar, P < 0.001 (Fig. 3B)",significantly increased
same,effect of CoPP treatment on the antihyperalgesic effects of JWH-015,"CFA-injected mice [1]; CoPP 10 mg/kg intraperitoneal, JWH-015 30 µg subplantar, P < 0.001 (Fig. 4B)",significantly enhanced
same,thermal hyperalgesia induced by peripheral inflammation,"CFA-injected mice [1]; CoPP alone 10 mg/kg intraperitoneal, ipsilateral paw, P < 0.001 versus vehicle (Fig. 3B)",significantly attenuated
same,"Thermal hyperalgesia, Experimental results (%) (maximal possible effect)","CFA-injected mice [1]; Table 5, ipsilateral paw, CoPP 10 mg/kg intraperitoneal, DPDPE 50 µg subplantar, vehicle 4.0",26.8%
same,"Thermal hyperalgesia, Experimental results (%) (maximal possible effect)","CFA-injected mice [1]; Table 6, ipsilateral paw, CoPP 10 mg/kg intraperitoneal, JWH-015 30 µg subplantar, vehicle 4.9",22.3%
same,effect of CoPP treatment on the mechanical antiallodynic effects of DPDPE,"CFA-injected mice [2]; CoPP 10 mg/kg intraperitoneal, DPDPE 50 µg subplantar (Fig. 3A)",did not alter
same,effect of CoPP treatment on the antiallodynic effects of JWH-015,"CFA-injected mice [2]; CoPP 10 mg/kg intraperitoneal, JWH-015 30 µg subplantar, P < 0.001 (Fig. 4A)",significantly enhanced
same,mechanical allodynia induced by peripheral inflammation,"CFA-injected mice [2]; CoPP alone 10 mg/kg intraperitoneal, ipsilateral paw, P < 0.001 versus vehicle (Fig. 3A)",significantly attenuated
same,"Mechanical allodynia, Experimental results (%) (maximal possible effect)","CFA-injected mice [2]; Table 5, ipsilateral paw, CoPP 10 mg/kg intraperitoneal, DPDPE 50 µg subplantar, vehicle 5.8",27.1%
same,"Mechanical allodynia, Experimental results (%) (maximal possible effect)","CFA-injected mice [2]; Table 6, ipsilateral paw, CoPP 10 mg/kg intraperitoneal, JWH-015 30 µg subplantar, vehicle 4.1",25.3%
